Results taken from PubChem BioAssay (NCI).
Where “and” joins values, the source holds several entries; their conditions need not be identical. Identical values can stand only once.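 In this assay, cells in 96-well plates receive the compound at five concentrations for 48 hours. Endpoints are linearly interpolated between the surrounding concentrations. GI50 = concentration required for 50% inhibition of growth. TGI is the concentration that stops growth completely.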

Columns and labels:
Assay in all cases: inhibition of tumour cell growth, NCI panel, 48 h
786-0 renal = system: 786-0 renal
RXF 393 renal = system: RXF 393 renal
PC-3 prostate = system: PC-3 prostate
SW-620 colon = system: SW-620 colon
SNB-19 CNS = system: SNB-19 CNS
OVCAR-5 ovarian = system: OVCAR-5 ovarian
NCI/ADR-RES ovarian = system: NCI/ADR-RES ovarian
RPMI-8226 leukemia = system: RPMI-8226 leukemia

Structure (SMILES): COC(=O)[C@@]1(C)CCC[C@]2(C(=O)O)C3Cc4occc4[C@H](C)[C@@H]3CCC21 (some centres not stated)
- TGI (786-0 renal): > 100 µM
- TGI (RXF 393 renal): > 100 µM
- TGI (PC-3 prostate): 96.9 µM
- TGI (SW-620 colon): > 100 µM
- TGI (SNB-19 CNS): > 100 µM
- TGI (OVCAR-5 ovarian): > 100 µM
- TGI (NCI/ADR-RES ovarian): 82 µM

Structure (SMILES): CCCCN(CCCC)CCc1c(C)cc(C)c(CCN(CCCC)CCCC)c1O
- GI50 (786-0 renal): 2.96 µM
- TGI (786-0 renal): 9.93 µM
- GI50 (RXF 393 renal): 2.4 µM
- TGI (RXF 393 renal): 7.23 µM
- GI50 (SW-620 colon): 2.88 µM
- TGI (SW-620 colon): > 100 µM
- GI50 (SNB-19 CNS): 3.04 µM
- TGI (SNB-19 CNS): > 100 µM
- GI50 (OVCAR-5 ovarian): 3.26 µM
- TGI (OVCAR-5 ovarian): > 100 µM
- GI50 (RPMI-8226 leukemia): 2.24 µM
- TGI (RPMI-8226 leukemia): 7.13 µM
- GI50 (NCI/ADR-RES ovarian): 3.63 µM
- TGI (NCI/ADR-RES ovarian): 88.1 µM

Structure (SMILES): C/C(=C(/c1ccc(O)cc1)c1ccc(Cl)cc1)c1ccccc1
- GI50 (786-0 renal): 0.558 µM
- TGI (786-0 renal): 1.56 µM
- GI50 (RXF 393 renal): 0.469 µM
- TGI (RXF 393 renal): 1.17 µM
- GI50 (PC-3 prostate): 0.721 µM
- TGI (PC-3 prostate): 2.56 µM
- GI50 (SW-620 colon): 0.8 µM
- TGI (SW-620 colon): 2.78 µM
- GI50 (SNB-19 CNS): 0.76 µM
- TGI (SNB-19 CNS): 2.18 µM
- GI50 (OVCAR-5 ovarian): 1.17 µM
- TGI (OVCAR-5 ovarian): 2.67 µM
- GI50 (RPMI-8226 leukemia): 0.583 µM
- TGI (RPMI-8226 leukemia): 1.69 µM
- GI50 (NCI/ADR-RES ovarian): 0.668 µM
- TGI (NCI/ADR-RES ovarian): 1.89 µM

Structure (SMILES): CC(C)(C)n1cc(-c2ccnc(NCCCNS(=O)(=O)c3ccc(Br)cc3)c2)c(-c2cccc(O)c2)n1
- GI50 (786-0 renal): 1.66 µM
- TGI (786-0 renal): 3.16 µM
- GI50 (RXF 393 renal): 1.46 µM
- TGI (RXF 393 renal): 2.87 µM
- GI50 (PC-3 prostate): 1.6 µM
- TGI (PC-3 prostate): 4.08 µM
- GI50 (SW-620 colon): 1.83 µM
- TGI (SW-620 colon): 3.63 µM
- GI50 (SNB-19 CNS): 2.11 µM
- TGI (SNB-19 CNS): 4.37 µM
- GI50 (OVCAR-5 ovarian): 1.87 µM
- TGI (OVCAR-5 ovarian): 3.5 µM
- GI50 (NCI/ADR-RES ovarian): 2.21 µM
- TGI (NCI/ADR-RES ovarian): 5.03 µM

Structure (SMILES): Oc1c(Cl)cc(Cl)cc1Sc1cc(Cl)cc(Cl)c1O
- GI50 (786-0 renal): 3.22 µM and 2.83 µM
- TGI (786-0 renal): 10.4 µM and 7.85 µM
- GI50 (RXF 393 renal): 2.84 µM and 2.52 µM
- TGI (RXF 393 renal): 8.76 µM and 7.65 µM
- GI50 (PC-3 prostate): 3.21 µM and 2.89 µM
- TGI (PC-3 prostate): 10.5 µM and 12.9 µM
- GI50 (SW-620 colon): 3.32 µM and 3.06 µM
- TGI (SW-620 colon): 13.2 µM and 12.5 µM
- GI50 (SNB-19 CNS): 4.84 µM and 3.23 µM
- TGI (SNB-19 CNS): 32.2 µM and 14.2 µM
- GI50 (OVCAR-5 ovarian): 4.37 µM and 4.04 µM
- TGI (OVCAR-5 ovarian): 17.9 µM and 14.2 µM
- GI50 (RPMI-8226 leukemia): 3.13 µM and 2.49 µM
- TGI (RPMI-8226 leukemia): 8.93 µM and 16.8 µM
- GI50 (NCI/ADR-RES ovarian): 2.92 µM and 2.74 µM
- TGI (NCI/ADR-RES ovarian): 13.1 µM and 9.29 µM

Structure (SMILES): Cc1ccc(/C=C2/NC(=S)SC2=O)cc1
- TGI (786-0 renal): > 100 µM
- TGI (PC-3 prostate): > 100 µM
- TGI (SW-620 colon): > 100 µM
- TGI (SNB-19 CNS): > 100 µM
- TGI (OVCAR-5 ovarian): > 100 µM
- TGI (NCI/ADR-RES ovarian): > 100 µM

Structure (SMILES): COC(=O)C(=O)C(C(=O)C(N)=O)c1nc2ccc(C(=O)c3ccccc3)cc2[nH]c1=O (configuration not stated)
- TGI (786-0 renal): > 100 µM
- TGI (RXF 393 renal): > 100 µM
- TGI (PC-3 prostate): > 100 µM
- TGI (SW-620 colon): > 100 µM
- TGI (OVCAR-5 ovarian): > 100 µM
- TGI (RPMI-8226 leukemia): > 100 µM
- TGI (NCI/ADR-RES ovarian): > 100 µM

Structure (SMILES): CCCCCCNC(=O)Oc1ccc(/C(=C(/C)Cc2ccc(OC)cc2)c2ccc(OCCN(C)C)cc2)cc1
- GI50 (786-0 renal): 4.97 µM
- TGI (786-0 renal): 9.49 µM
- GI50 (RXF 393 renal): 4.36 µM
- TGI (RXF 393 renal): 9.23 µM
- GI50 (PC-3 prostate): 1.66 µM
- TGI (PC-3 prostate): 5.96 µM
- GI50 (SW-620 colon): 4.86 µM
- TGI (SW-620 colon): 9.59 µM
- GI50 (SNB-19 CNS): 5.6 µM
- TGI (SNB-19 CNS): 10.4 µM
- GI50 (OVCAR-5 ovarian): 4.58 µM
- TGI (OVCAR-5 ovarian): 8.99 µM
- GI50 (RPMI-8226 leukemia): 0.983 µM
- TGI (RPMI-8226 leukemia): 2.7 µM
- GI50 (NCI/ADR-RES ovarian): 5.07 µM
- TGI (NCI/ADR-RES ovarian): 10.7 µM

Structure (SMILES): COc1ccc([C@@H](O)c2cc(-c3ncnc4cc(N5CCOCC5)ccc34)c(F)cc2Cl)nn1
- GI50 (786-0 renal): 1.1 µM
- TGI (786-0 renal): 25.3 µM
- GI50 (RXF 393 renal): 0.678 µM
- TGI (RXF 393 renal): 11.6 µM
- GI50 (PC-3 prostate): 0.865 µM
- TGI (PC-3 prostate): 30.9 µM
- GI50 (SW-620 colon): 6.78 µM
- TGI (SW-620 colon): 52.2 µM
- GI50 (SNB-19 CNS): 10.8 µM
- TGI (SNB-19 CNS): > 100 µM
- GI50 (OVCAR-5 ovarian): 7.2 µM
- TGI (OVCAR-5 ovarian): > 100 µM
- GI50 (RPMI-8226 leukemia): 3.58 µM
- TGI (RPMI-8226 leukemia): 22.4 µM
- GI50 (NCI/ADR-RES ovarian): 4.87 µM
- TGI (NCI/ADR-RES ovarian): 95.4 µM
